Assay results reported in US20090069623A1, “METHODS AND COMPOSITIONS FOR TREATMENT OR PREVENTION OF RADIATION-INDUCED FIBROSIS” (Virginia Commonwealth University Intellectual Property …, priority 2007, published 2009).

What was measured:
Format in all cases: cell-based, human
[1] = test system: CTGF, fibronectin (FN), collagen type IV (Col IV) mRNA; experiment: RT-PCR of TGF-β1-induced mRNA expression in HFL-1 cells treated with simvastatin; details: 10 ng/ml TGF-β1 for 20 hours, FIG. 7A
Protocol: Cell Culture and Treatment. Normal human fetal lung fibroblasts (HFL-1) were purchased from the American Type Culture Collection (ATCC Number: CCL-153) and cultured in Ham's F12K medium (American Type Culture Collection) supplemented with 2 mM L-glutamine adjusted to contain 1.5 g/L sodium bicarbonate and 10% fetal bovine serum. Cells were maintained in humidified 5% CO2 at 37° C. Human dermal fibroblasts (HDF), derived from the dermis of normal human adult skin, were purchased from Invitrogen, Inc. and cultured in Medium-106 (Invitrogen, Inc., Catalogue No. M-106-500) containing LSGS Kit (Invitrogen, Inc., Catalogue No. […]) prior to use. After reaching 75-80% confluence, the medium was changed to serum free medium (SFM) for irradiation with different dose 1Gy, 2.5Gy, 5Gy, 7.5Gy and 10 Gy by using ^137Se. Alternatively, cells were treated with 5 ng/ml TGF-β1 (Sigma-Aldrich, Inc., Catalogue No. T7039) to stimulate CTGF production. The cells were then kept for 3 days in humidified 5% CO2 at 37° C. and subjected to Western immunoblot.^1 ^1What are the culture conditions (e.g., media) for M12 cells used in FIG. 3? RT-PCR analysis of CTGF, COL-IV, FN and hβ2M. […] The ability of statins to inhibit TGF-β1-mediated induction of CTGF, fibronectin, and collagen type IV was assessed in HFL-1 cells. […]

[2] = test system: CTGF, fibronectin (FN), collagen type IV (Col IV) mRNA; experiment: RT-PCR of mRNA expression in irradiated HFL-1 cells treated with simvastatin; details: simvastatin pretreatment 6 hours, 10 Gy, 20 hours, FIG. 8A
Protocol: For statin treatment experiments, cells were grown overnight in 35 mm plates (6-well plates were also used in some studies) to form a 75-80% confluent monolayer. The cells were then washed with PBS, and the media was changed to SFM (800 μL).
RT-PCR analysis of CTGF, COL-IV, FN and hβ2M. […] One microgram of purified total RNA was used for RT-PCR analysis using the ThermoScript RT-PCR System (Invitrogen, Inc.) according to the protocol of the manufacturer. The sequences of the forward and reverse primers are as follows: CTGF forward primer (SEQ ID NO 1) 5′-[…]-3′, CTGF reverse primer (SEQ ID NO 2) 5′-[…]-3′; COL-IV forward primer (SEQ ID NO 3) 5′-[…]-3′, COL-IV reverse primer (SEQ ID NO 4) 5′-[…]-3′; FN forward primer (SEQ ID NO 5) 5′-[…]-3′, FN reverse primer (SEQ ID NO 6) 5′-[…]-3′; hβ2M forward primer (SEQ ID NO 7) 5′-[…]-3′; hβ2M reverse primer (SEQ ID NO 8) 5′-[…]-3′. The CTGF PCR product is 242 bp in length, the COL-IV PCR product is 138 bp, the FN PCR product is 203 bp, and hβ2M PCR product is 278 bp. For PCR amplification, 25 cycles were performed for the amplification of CTGF, COL-IV, FN and hβ2M (denaturation: 94° C., 45 sec; annealing: 55° C., 45 sec; polymerization: 72° C., 1 min). Amplified products were separated by electrophoresis on a 1.0% agarose gel, and DNA was visualized by ethidium bromide staining.

[3] = test system: CTGF, fibronectin (FN), collagen type IV (Col IV) mRNA; experiment: RT-PCR of TGF-β1-induced mRNA expression in HDF cells treated with simvastatin; details: 10 ng/ml TGF-β1 for 20 hours, FIG. 10A
Protocol: Cell Culture and Treatment. Normal human fetal lung fibroblasts (HFL-1) were purchased from the American Type Culture Collection (ATCC Number: CCL-153) and cultured in Ham's F12K medium (American Type Culture Collection) supplemented with 2 mM L-glutamine adjusted to contain 1.5 g/L sodium bicarbonate and 10% fetal bovine serum. Cells were maintained in humidified 5% CO2 at 37° C. Human dermal fibroblasts (HDF), derived from the dermis of normal human adult skin, were purchased from Invitrogen, Inc. and cultured in Medium-106 (Invitrogen, Inc., Catalogue No. M-106-500) containing LSGS Kit (Invitrogen, Inc., Catalogue No. S-003-K) prior to use. After reaching 75-80% confluence, the medium was changed to serum free medium (SFM) for irradiation with different dose 1Gy, 2.5Gy, 5Gy, 7.5Gy and 10 Gy by using ^137Se. Alternatively, cells were treated with 5 ng/ml TGF-β1 (Sigma-Aldrich, Inc., Catalogue No. T7039) to stimulate CTGF production. The cells were then kept for 3 days in humidified 5% CO2 at 37° C. and subjected to Western immunoblot.^1 ^1What are the culture conditions (e.g., media) for M12 cells used in FIG. 3?
RT-PCR analysis of CTGF, COL-IV, FN and hβ2M. […]
The ability of statins to inhibit TGF-β1-mediated induction of CTGF, fibronectin, and collagen type IV was assessed in HDF cells. […]

[4] = increasing concentration of simvastatin

`CCC(C)(C)C(=O)O[C@H]1C[C@@H](C)C=C2C=C[C@H](C)[C@H](CC[C@@H]3C[C@@H](O)CC(=O)O3)[C@H]21` [simvastatin, 2,2-dimethyl-butanoic acid(1S,3R,7S,8S,8aR)-1,2,3,7,8,8a-hexahydro-3,7-dimethyl-8-[2-[(2R,4R)-tetrahydro-4-hydroxy-6-oxo-2H-pyran-2-yl]ethyl]-1-naphthalenylester] was tested, and the “CTGF, FN, and Col IV mRNA expression” value ([1]; 0.1 μM simvastatin) was “reduction in CTGF, FN, and Col IV mRNA expression”, the “CTGF, FN, and Col IV mRNA expression” value [1, 4] was “reduction in CTGF, FN, and Col IV mRNA expression became more pronounced” and the “expression of CTGF, FN, and Col-IV mRNA” value [2] was “decrease in the expression of CTGF, FN, and Col-IV mRNA”. For the same compound, the “CTGF, FN, and Col IV mRNA expression” value ([3]; 0.1 μM simvastatin) was “reduction in CTGF, FN, and Col IV mRNA expression” and the “CTGF, FN, and Col IV mRNA expression” value [3, 4] was “reduction in CTGF, FN, and Col IV mRNA expression became more pronounced”.
